Results reported in patent US6992079B2, “Substituted 11-phenyl-dibenzazepine compounds useful for the treatment or prevention of diseases characterized by abnormal cell proliferation” (President Fellows of Harvard College, priority 1997, dated 2006).
Where two headings read alike, the source gives them in different places.

Experiments:
[1] = tested on: H460 large cell lung carcinoma; experiment: Mouse xenograft tumor growth; assay type: in vivo, CD-1 nude mice
CCRF-CEM = experiment: In-Vitro Testing SRB panel: Leukemia; assay type: cell-based
K-562 = experiment: In-Vitro Testing SRB panel: Leukemia; assay type: cell-based
RPMI-8226 = experiment: In-Vitro Testing SRB panel: Leukemia; assay type: cell-based
ROP-92 = assay type: cell-based
NCI-H23 = assay type: cell-based
NCI-H522 = assay type: cell-based
SNB-75 = experiment: In-Vitro Testing SRB panel: CNS Cancer; assay type: cell-based
MALM-3M = experiment: In-Vitro Testing SRB panel: Melanoma; assay type: cell-based
SK-MEL-5 = experiment: In-Vitro Testing SRB panel: Melanoma; assay type: cell-based
IGROV1 = experiment: In-Vitro Testing SRB panel: Ovarian Cancer; assay type: cell-based
OVCAR-4 = experiment: In-Vitro Testing SRB panel: Ovarian Cancer; assay type: cell-based
OVCAR-5 = experiment: In-Vitro Testing SRB panel: Ovarian Cancer; assay type: cell-based
ACHN = experiment: In-Vitro Testing SRB panel: Renal Cancer; assay type: cell-based
SN12C = experiment: In-Vitro Testing SRB panel: Renal Cancer; assay type: cell-based
MDA-MB-231/ATCC = experiment: In-Vitro Testing SRB panel: Breast Cancer; assay type: cell-based
BT-549 = experiment: In-Vitro Testing SRB panel: Breast Cancer; assay type: cell-based
T-47D = experiment: In-Vitro Testing SRB panel: Breast Cancer; assay type: cell-based
[2] = Homo sapiens, read-out: LC50 (the source's name)

## COc1ccc2c(c1)CN(C(=O)c1ccc([N+](=O)[O-])cc1)c1ccc(Cl)cc1C2c1ccccc1Cl (stereo not shown) [Compound 30]
[1]
  tumor growth: showed inhibition of tumor growth
CCRF-CEM
  TGI: >1.00E−04 Molar
CCRF-CEM; Homo sapiens
  GI50: 1.85 µM
CCRF-CEM; [2]
  CC50: > 100 µM
CCRF-CEM; Log10 concentration −4.0 Molar
  Percent Growth: 39%
CCRF-CEM; Log10 concentration −5.0 Molar
  Percent Growth: 22%
CCRF-CEM; Log10 concentration −6.0 Molar
  Percent Growth: 60%
CCRF-CEM; Log10 concentration −7.0 Molar
  Percent Growth: 70%
CCRF-CEM; Log10 concentration −8.0 Molar
  Percent Growth: 73%
K-562; Homo sapiens, K562
  GI50: 1.33 µM
K-562; Homo sapiens, K562, K-562, read-out: LC50 (the source's name)
  CC50: > 100 µM
K-562; K-562
  TGI: >1.00E−04 Molar
K-562; K-562, Log10 concentration −4.0 Molar
  Percent Growth: 17%
K-562; K-562, Log10 concentration −5.0 Molar
  Percent Growth: 24%
K-562; K-562, Log10 concentration −6.0 Molar
  Percent Growth: 54%
K-562; K-562, Log10 concentration −7.0 Molar
  Percent Growth: 86%
K-562; K-562, Log10 concentration −8.0 Molar
  Percent Growth: 99%
RPMI-8226; Homo sapiens, RPMI-8226
  GI50: 0.953 µM
RPMI-8226; Homo sapiens, RPMI-8226, read-out: LC50 (the source's name)
  CC50: > 100 µM
RPMI-8226; RPMI-8226
  TGI: >1.00E−04 Molar
RPMI-8226; RPMI-8226, Log10 concentration −4.0 Molar
  Percent Growth: 36%
RPMI-8226; RPMI-8226, Log10 concentration −5.0 Molar
  Percent Growth: 30%
RPMI-8226; RPMI-8226, Log10 concentration −6.0 Molar
  Percent Growth: 49%
RPMI-8226; RPMI-8226, Log10 concentration −7.0 Molar
  Percent Growth: 100%
RPMI-8226; RPMI-8226, Log10 concentration −8.0 Molar
  Percent Growth: 86%
ROP-92; Homo sapiens
  GI50: > 100 µM
ROP-92; Homo sapiens, ROP-92, read-out: LC50 (the source's name)
  CC50: > 100 µM
ROP-92; ROP-92
  TGI: >1.00E−04 Molar
ROP-92; ROP-92, Log10 concentration −4.0 Molar
  Percent Growth: 58%
ROP-92; ROP-92, Log10 concentration −5.0 Molar
  Percent Growth: 69%
ROP-92; ROP-92, Log10 concentration −6.0 Molar
  Percent Growth: 93%
ROP-92; ROP-92, Log10 concentration −7.0 Molar
  Percent Growth: 102%
ROP-92; ROP-92, Log10 concentration −8.0 Molar
  Percent Growth: 91%
NCI-H23; Homo sapiens, NCI-H23
  GI50: > 100 µM
NCI-H23; Homo sapiens, NCI-H23, read-out: LC50 (the source's name)
  CC50: > 100 µM
NCI-H23; NCI-H23
  TGI: >1.00E−04 Molar
NCI-H23; NCI-H23, Log10 concentration −4.0 Molar
  Percent Growth: 55%
NCI-H23; NCI-H23, Log10 concentration −5.0 Molar
  Percent Growth: 60%
NCI-H23; NCI-H23, Log10 concentration −6.0 Molar
  Percent Growth: 84%
NCI-H23; NCI-H23, Log10 concentration −7.0 Molar
  Percent Growth: 97%
NCI-H23; NCI-H23, Log10 concentration −8.0 Molar
  Percent Growth: 93%
NCI-H522; Homo sapiens, NCI-H522
  GI50: 0.76 µM
NCI-H522; Homo sapiens, NCI-H522, read-out: LC50 (the source's name)
  CC50: > 100 µM
NCI-H522; NCI-H522
  TGI: 6.10E−05 Molar
NCI-H522; NCI-H522, Log10 concentration −4.0 Molar
  Percent Growth: −9%
NCI-H522; NCI-H522, Log10 concentration −5.0 Molar
  Percent Growth: 19%
NCI-H522; NCI-H522, Log10 concentration −6.0 Molar
  Percent Growth: 42%
NCI-H522; NCI-H522, Log10 concentration −7.0 Molar
  Percent Growth: 113%
NCI-H522; NCI-H522, Log10 concentration −8.0 Molar
  Percent Growth: 114%
SNB-75; Homo sapiens, SNB-75
  GI50: 4.52 µM
SNB-75; Homo sapiens, SNB-75, read-out: LC50 (the source's name)
  CC50: > 100 µM
SNB-75; SNB-75
  TGI: >1.00E−04 Molar
SNB-75; SNB-75, Log10 concentration −4.0 Molar
  Percent Growth: 25%
SNB-75; SNB-75, Log10 concentration −5.0 Molar
  Percent Growth: 32%
SNB-75; SNB-75, Log10 concentration −6.0 Molar
  Percent Growth: 83%
SNB-75; SNB-75, Log10 concentration −7.0 Molar
  Percent Growth: 103%
SNB-75; SNB-75, Log10 concentration −8.0 Molar
  Percent Growth: 99%
MALM-3M; Homo sapiens
  GI50: 0.342 µM
MALM-3M; Homo sapiens, MALM-3M, read-out: LC50 (the source's name)
  CC50: > 100 µM
MALM-3M; MALM-3M
  TGI: 8.35E−05 Molar
MALM-3M; MALM-3M, Log10 concentration −4.0 Molar
  Percent Growth: −4%
MALM-3M; MALM-3M, Log10 concentration −5.0 Molar
  Percent Growth: 49%
MALM-3M; MALM-3M, Log10 concentration −6.0 Molar
  Percent Growth: 16%
MALM-3M; MALM-3M, Log10 concentration −7.0 Molar
  Percent Growth: 82%
MALM-3M; MALM-3M, Log10 concentration −8.0 Molar
  Percent Growth: 96%
SK-MEL-5; Homo sapiens, SK-MEL-5
  GI50: 3.95 µM
SK-MEL-5; Homo sapiens, SK-MEL-5, read-out: LC50 (the source's name)
  CC50: > 100 µM
SK-MEL-5; SK-MEL-5
  TGI: >1.00E−04 Molar
SK-MEL-5; SK-MEL-5, Log10 concentration −4.0 Molar
  Percent Growth: 12%
SK-MEL-5; SK-MEL-5, Log10 concentration −5.0 Molar
  Percent Growth: 26%
SK-MEL-5; SK-MEL-5, Log10 concentration −6.0 Molar
  Percent Growth: 85%
SK-MEL-5; SK-MEL-5, Log10 concentration −7.0 Molar
  Percent Growth: 90%
SK-MEL-5; SK-MEL-5, Log10 concentration −8.0 Molar
  Percent Growth: 93%
IGROV1; Homo sapiens, IGROV-1
  GI50: 6.35 µM
IGROV1; Homo sapiens, IGROV-1, IGROV1, read-out: LC50 (the source's name)
  CC50: > 100 µM
IGROV1; IGROV1
  TGI: >1.00E−04 Molar
IGROV1; IGROV1, Log10 concentration −4.0 Molar
  Percent Growth: 36%
IGROV1; IGROV1, Log10 concentration −5.0 Molar
  Percent Growth: 41%
IGROV1; IGROV1, Log10 concentration −6.0 Molar
  Percent Growth: 86%
IGROV1; IGROV1, Log10 concentration −7.0 Molar
  Percent Growth: 97%
IGROV1; IGROV1, Log10 concentration −8.0 Molar
  Percent Growth: 97%
OVCAR-4; Homo sapiens, OVCAR-4
  GI50: 1.86 µM
OVCAR-4; Homo sapiens, OVCAR-4, read-out: LC50 (the source's name)
  CC50: > 100 µM
OVCAR-4; OVCAR-4
  TGI: 9.89E−06 Molar
OVCAR-4; OVCAR-4, Log10 concentration −4.0 Molar
  Percent Growth: −9%
OVCAR-4; OVCAR-4, Log10 concentration −5.0 Molar
  Percent Growth: 0%
OVCAR-4; OVCAR-4, Log10 concentration −6.0 Molar
  Percent Growth: 69%
OVCAR-4; OVCAR-4, Log10 concentration −7.0 Molar
  Percent Growth: 103%
OVCAR-4; OVCAR-4, Log10 concentration −8.0 Molar
  Percent Growth: 109%
OVCAR-5; Homo sapiens, OVCAR-5
  GI50: > 100 µM
OVCAR-5; Homo sapiens, OVCAR-5, read-out: LC50 (the source's name)
  CC50: > 100 µM
OVCAR-5; OVCAR-5
  TGI: >1.00E−04 Molar
OVCAR-5; OVCAR-5, Log10 concentration −4.0 Molar
  Percent Growth: 78%
OVCAR-5; OVCAR-5, Log10 concentration −5.0 Molar
  Percent Growth: 86%
OVCAR-5; OVCAR-5, Log10 concentration −6.0 Molar
  Percent Growth: 98%
OVCAR-5; OVCAR-5, Log10 concentration −7.0 Molar
  Percent Growth: 106%
OVCAR-5; OVCAR-5, Log10 concentration −8.0 Molar
  Percent Growth: 102%
ACHN
  TGI: >1.00E−04 Molar
ACHN; [2]
  CC50: > 100 µM
ACHN; Log10 concentration −4.0 Molar
  Percent Growth: 53%
ACHN; Log10 concentration −5.0 Molar
  Percent Growth: 50%
ACHN; Log10 concentration −6.0 Molar
  Percent Growth: 94%
ACHN; Log10 concentration −7.0 Molar
  Percent Growth: 108%
ACHN; Log10 concentration −8.0 Molar
  Percent Growth: 107%
SN12C
  TGI: >1.00E−04 Molar
SN12C; Homo sapiens
  GI50: 6.32 µM
SN12C; [2]
  CC50: > 100 µM
SN12C; Log10 concentration −4.0 Molar
  Percent Growth: 45%
SN12C; Log10 concentration −5.0 Molar
  Percent Growth: 41%
SN12C; Log10 concentration −6.0 Molar
  Percent Growth: 87%
SN12C; Log10 concentration −7.0 Molar
  Percent Growth: 90%
SN12C; Log10 concentration −8.0 Molar
  Percent Growth: 100%
MDA-MB-231/ATCC; Homo sapiens, MDA-MB-231
  GI50: > 100 µM
MDA-MB-231/ATCC; Homo sapiens, MDA-MB-231/ATCC, read-out: LC50 (the source's name)
  CC50: > 100 µM
MDA-MB-231/ATCC; MDA-MB-231/ATCC
  TGI: >1.00E−04 Molar
MDA-MB-231/ATCC; MDA-MB-231/ATCC, Log10 concentration −4.0 Molar
  Percent Growth: 54%
MDA-MB-231/ATCC; MDA-MB-231/ATCC, Log10 concentration −5.0 Molar
  Percent Growth: 54%
MDA-MB-231/ATCC; MDA-MB-231/ATCC, Log10 concentration −6.0 Molar
  Percent Growth: 89%
MDA-MB-231/ATCC; MDA-MB-231/ATCC, Log10 concentration −7.0 Molar
  Percent Growth: 92%
MDA-MB-231/ATCC; MDA-MB-231/ATCC, Log10 concentration −8.0 Molar
  Percent Growth: 106%
BT-549; BT-549
  TGI: >1.00E−04 Molar
BT-549; BT-549, Log10 concentration −4.0 Molar
  Percent Growth: 61%
BT-549; BT-549, Log10 concentration −5.0 Molar
  Percent Growth: 75%
BT-549; BT-549, Log10 concentration −6.0 Molar
  Percent Growth: 90%
BT-549; BT-549, Log10 concentration −7.0 Molar
  Percent Growth: 99%
BT-549; BT-549, Log10 concentration −8.0 Molar
  Percent Growth: 95%
BT-549; Homo sapiens, BT-549
  GI50: > 100 µM
BT-549; Homo sapiens, BT-549, read-out: LC50 (the source's name)
  CC50: > 100 µM
T-47D; Homo sapiens, T47D
  GI50: 2.87 µM
T-47D; Homo sapiens, T47D, T-47D, read-out: LC50 (the source's name)
  CC50: > 100 µM
T-47D; T-47D
  TGI: >1.00E−04 Molar
T-47D; T-47D, Log10 concentration −4.0 Molar
  Percent Growth: 18%
T-47D; T-47D, Log10 concentration −5.0 Molar
  Percent Growth: 23%
T-47D; T-47D, Log10 concentration −6.0 Molar
  Percent Growth: 71%
T-47D; T-47D, Log10 concentration −7.0 Molar
  Percent Growth: 96%
T-47D; T-47D, Log10 concentration −8.0 Molar
  Percent Growth: 92%
